Results from ChEMBL document CHEMBL6078652, “Discovery of Sporachelins by Genome Mining of a Micromonospora Strain” (J Nat Prod, 2024).
The source made the active and inactive calls. The rule behind the calls is not given here.

Assays:
LX-2 [1] = assay: Antifibrotic activity against TGFbeta-1 induced human LX-2 cells assessed as inhibition of COL1A1 mRNA expression at 20 uM incubated for 24 hrs by qRT-PCR analysis relative to control; type: functional; parameters: scale not given: the % may be the effect or the level left
LX-2 [2] = assay: Antifibrotic activity against TGFbeta-1 induced human LX-2 cells assessed as inhibition of TGFB1 mRNA expression at 20 uM incubated for 24 hrs by qRT-PCR analysis relative to control; type: functional; parameters: scale not given: the % may be the effect or the level left
LX-2 [3] = assay: Antifibrotic activity against TGFbeta-1 induced human LX-2 cells assessed as inhibition of ACTA2 mRNA expression at 20 uM incubated for 24 hrs by qRT-PCR analysis relative to control; type: functional; parameters: scale not given: the % may be the effect or the level left
LX-2 [4] = assay: Antifibrotic activity against TGFbeta-1 induced human LX-2 cells assessed as inhibition of COL1A1 mRNA expression at 1 uM incubated for 24 hrs by qRT-PCR analysis relative to control; type: functional; parameters: scale not given: the % may be the effect or the level left
LX-2 [5] = assay: Antifibrotic activity against TGFbeta-1 induced human LX-2 cells assessed as inhibition of COL1A1 mRNA expression at 5 uM incubated for 24 hrs by qRT-PCR analysis relative to control; type: functional; parameters: scale not given: the % may be the effect or the level left
LX-2 [6] = assay: Antifibrotic activity against TGFbeta-1 induced human LX-2 cells assessed as inhibition of TGFB1 mRNA expression at 1 uM incubated for 24 hrs by qRT-PCR analysis relative to control; type: functional; parameters: scale not given: the % may be the effect or the level left
LX-2 [7] = assay: Antifibrotic activity against TGFbeta-1 induced human LX-2 cells assessed as inhibition of TGFB1 mRNA expression at 5 uM incubated for 24 hrs by qRT-PCR analysis relative to control; type: functional; parameters: scale not given: the % may be the effect or the level left
LX-2 [8] = assay: Antifibrotic activity against TGFbeta-1 induced human LX-2 cells assessed as inhibition of ACTA2 mRNA expression at 1 uM incubated for 24 hrs by qRT-PCR analysis relative to control; type: functional; parameters: scale not given: the % may be the effect or the level left
LX-2 [9] = assay: Antifibrotic activity against TGFbeta-1 induced human LX-2 cells assessed as inhibition of ACTA2 mRNA expression at 5 uM incubated for 24 hrs by qRT-PCR analysis relative to control; type: functional; parameters: scale not given: the % may be the effect or the level left
LX-2 [10] = assay: Cytotoxicity against human LX-2 cells assessed as reduction in cell viability at 200 uM incubated for 24 hrs by CCK-8 assay; type: toxicity, cell-based; conditions: lx-2, 24 h
NIH3T3 [11] = assay: Antifibrotic activity against TGFbeta-1 induced mouse NIH3T3 cells assessed as decrease in COL1A1 mRNA expression at 1 uM incubated for 24 hrs by qRT-PCR analysis relative to control; type: functional; parameters: scale not given: the % may be the effect or the level left
NIH3T3 [12] = assay: Antifibrotic activity against TGFbeta-1 induced mouse NIH3T3 cells assessed as decrease in COL1A1 mRNA expression at 5 uM incubated for 24 hrs by qRT-PCR analysis relative to control; type: functional; parameters: scale not given: the % may be the effect or the level left
NIH3T3 [13] = assay: Antifibrotic activity against TGFbeta-1 induced mouse NIH3T3 cells assessed as decrease in Acta2 mRNA expression at 1 uM incubated for 24 hrs by qRT-PCR analysis relative to control; type: functional; parameters: scale not given: the % may be the effect or the level left
NIH3T3 [14] = assay: Antifibrotic activity against TGFbeta-1 induced mouse NIH3T3 cells assessed as decrease in Acta2 mRNA expression at 5 uM incubated for 24 hrs by qRT-PCR analysis relative to control; type: functional; parameters: scale not given: the % may be the effect or the level left
[15] = target: T1, Polyunsaturated fatty acid 5-lipoxygenase (Homo sapiens) (UniProt P09917); assay: Inhibition of human 5-LO at 2 uM incubated for 15 mins in presence of ATP by measuring fluorescence intensity relative to control
T1 sequence (whole entry): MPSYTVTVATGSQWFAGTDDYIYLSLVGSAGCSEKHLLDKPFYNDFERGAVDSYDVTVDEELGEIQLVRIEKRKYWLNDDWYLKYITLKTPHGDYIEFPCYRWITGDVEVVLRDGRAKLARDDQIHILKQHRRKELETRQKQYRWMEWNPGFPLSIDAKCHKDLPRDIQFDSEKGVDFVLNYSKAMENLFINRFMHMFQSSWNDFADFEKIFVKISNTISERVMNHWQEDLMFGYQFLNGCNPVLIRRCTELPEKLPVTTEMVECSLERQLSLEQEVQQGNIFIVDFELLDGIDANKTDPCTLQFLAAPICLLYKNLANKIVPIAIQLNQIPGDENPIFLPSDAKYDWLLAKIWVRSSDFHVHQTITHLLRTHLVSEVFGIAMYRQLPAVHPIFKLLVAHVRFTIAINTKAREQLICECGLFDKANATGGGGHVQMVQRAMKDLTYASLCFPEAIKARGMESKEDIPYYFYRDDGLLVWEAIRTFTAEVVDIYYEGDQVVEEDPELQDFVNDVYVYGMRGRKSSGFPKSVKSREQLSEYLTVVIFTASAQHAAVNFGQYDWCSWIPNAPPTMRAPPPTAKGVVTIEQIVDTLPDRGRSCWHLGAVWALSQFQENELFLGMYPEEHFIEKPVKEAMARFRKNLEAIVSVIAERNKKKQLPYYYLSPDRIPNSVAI

LX-2 [16] = assay: Antifibrotic activity against TGFbeta-1 induced human LX-2 cells assessed as inhibition of COL1A1 mRNA expression incubated for 24 hrs by qRT-PCR analysis; type: functional, cell-based; conditions: dose 1-5 µM
LX-2 [17] = assay: Antifibrotic activity against TGFbeta-1 induced human LX-2 cells assessed as inhibition of TGFB1 mRNA expression incubated for 24 hrs by qRT-PCR analysis; type: functional, cell-based; conditions: dose 1-5 µM
LX-2 [18] = assay: Antifibrotic activity against TGFbeta-1 induced human LX-2 cells assessed as inhibition of ACTA2 mRNA expression incubated for 24 hrs by qRT-PCR analysis; type: functional, cell-based; conditions: dose 1-5 µM
Escherichia coli [19] = assay: Antibacterial activity against Escherichia coli ATCC 25922 assessed as bacterial growth inhibition incubated for 16 hrs in presence of Muller-Hinton medium by broth microdilution method; type: functional, organism-based
Escherichia coli [20] = assay: Antibacterial activity against Escherichia coli ATCC 35218 assessed as bacterial growth inhibition incubated for 16 hrs in presence of Muller-Hinton medium by broth microdilution method; type: functional, organism-based
Pseudomonas aeruginosa [21] = assay: Antibacterial activity against Pseudomonas aeruginosa ATCC 27853 assessed as bacterial growth inhibition incubated for 16 hrs in presence of Muller-Hinton medium by broth microdilution method; type: functional, organism-based
Pseudomonas aeruginosa [22] = assay: Antibacterial activity against Pseudomonas aeruginosa 2774 assessed as bacterial growth inhibition incubated for 16 hrs in presence of Muller-Hinton medium by broth microdilution method; type: functional, organism-based
Klebsiella pneumoniae [23] = assay: Antibacterial activity against Klebsiella pneumoniae ATCC 10031 assessed as bacterial growth inhibition incubated for 16 hrs in presence of Muller-Hinton medium by broth microdilution method; type: functional, organism-based
Klebsiella pneumoniae [24] = assay: Antibacterial activity against Klebsiella pneumoniae ATCC 700603 assessed as bacterial growth inhibition incubated for 16 hrs in presence of Muller-Hinton medium by broth microdilution method; type: functional, organism-based
Acinetobacter baumannii [25] = assay: Antibacterial activity against Acinetobacter baumannii ATCC 19606 assessed as bacterial growth inhibition incubated for 16 hrs in presence of Muller-Hinton medium by broth microdilution method; type: functional, organism-based
Acinetobacter baumannii [26] = assay: Antibacterial activity against Acinetobacter baumannii 2799 assessed as bacterial growth inhibition incubated for 16 hrs in presence of Muller-Hinton medium by broth microdilution method; type: functional, organism-based
Enterococcus faecium = assay: Antibacterial activity against Enterococcus faecium 310682 (VRE) assessed as bacterial growth inhibition incubated for 16 hrs in presence of brain heart infusion medium by broth microdilution method; type: functional, organism-based
Enterococcus faecalis = assay: Antibacterial activity against Enterococcus faecalis ATCC 33186 assessed as bacterial growth inhibition incubated for 16 hrs in presence of brain heart infusion medium by broth microdilution method; type: functional, organism-based
Staphylococcus aureus [27] = assay: Antibacterial activity against Staphylococcus aureus ATCC 33591 assessed as bacterial growth inhibition incubated for 16 hrs in presence of Muller-Hinton medium by broth microdilution method; type: functional, organism-based
Staphylococcus aureus [28] = assay: Antibacterial activity against Staphylococcus aureus ATCC 29213 assessed as bacterial growth inhibition incubated for 16 hrs in presence of Muller-Hinton medium by broth microdilution method; type: functional, organism-based
Bacillus subtilis = assay: Antibacterial activity against Bacillus subtilis CPCC 100029 assessed as bacterial growth inhibition incubated for 16 hrs in presence of Muller-Hinton medium by broth microdilution method; type: functional, organism-based

SMILES	Activity (LX-2 [4]) [%]	Activity (LX-2 [5]) [%]	Activity (LX-2 [6]) [%]	Activity (LX-2 [7]) [%]	Activity (LX-2 [8]) [%]	Activity (LX-2 [9]) [%]	Activity (LX-2 [10])	Activity (NIH3T3 [11]) [%]	Activity (NIH3T3 [12]) [%]	Activity (NIH3T3 [13]) [%]	Activity (NIH3T3 [14]) [%]	inhibition [15] [%]	Activity (LX-2 [16])	Activity (LX-2 [17])	Activity (LX-2 [18])	Activity (Escherichia coli [19])	Activity (Escherichia coli [20])	Activity (Pseudomonas aeruginosa [21])	Activity (Pseudomonas aeruginosa [22])	Activity (Klebsiella pneumoniae [23])	also measured
O=C(O[C@@H]1Cc2c(O)cc(O)cc2O[C@@H]1c1cc(O)c(O)c(O)c1)c1cc(O)c(O)c(O)c1 [EPIGALOCATECHIN GALLATE]	–	–	–	–	–	–	–	–	–	–	–	–	–	–	–	–	–	–	–	–	Activity (LX-2 [1]): 89%; Activity (LX-2 [2]): 88%; Activity (LX-2 [3]): 62%
CC(=O)OC[C@H](CCCCNC(=O)c1cccc(O)c1O)NC(=O)c1cccc(O)c1O	35	81	36	70	62	132	Non-toxic	60	70	95	129	78	Dose-dependent-effect	Dose-dependent-effect	Dose-dependent-effect	inactive	inactive	inactive	inactive	inactive	Activity (Klebsiella pneumoniae [24]): inactive; Activity (Acinetobacter baumannii [25]): inactive; Activity (Acinetobacter baumannii [26]): inactive; Activity (Enterococcus faecium): inactive; Activity (Enterococcus faecalis): inactive; Activity (Staphylococcus aureus [27]): inactive; Activity (Staphylococcus aureus [28]): inactive; Activity (Bacillus subtilis): inactive
O=C(NCCCC[C@@H](CO)NC(=O)c1cccc(O)c1O)c1cccc(O)c1O	39	82	60	74	87	136	Non-toxic	9	78	70	108	67	Dose-dependent-effect	Dose-dependent-effect	Dose-dependent-effect	inactive	inactive	inactive	inactive	inactive	Activity (Klebsiella pneumoniae [24]): inactive; Activity (Acinetobacter baumannii [25]): inactive; Activity (Acinetobacter baumannii [26]): inactive; Activity (Enterococcus faecium): inactive; Activity (Enterococcus faecalis): inactive; Activity (Staphylococcus aureus [27]): inactive; Activity (Staphylococcus aureus [28]): inactive; Activity (Bacillus subtilis): inactive
O=C(Cc1ccccc1)OC[C@H](CCCCNC(=O)c1cccc(O)c1O)NC(=O)c1cccc(O)c1O	46	87	46	69	82	139	Non-toxic	78	81	94	124	72	Dose-dependent-effect	Dose-dependent-effect	Dose-dependent-effect	inactive	inactive	inactive	inactive	inactive	Activity (Klebsiella pneumoniae [24]): inactive; Activity (Acinetobacter baumannii [25]): inactive; Activity (Acinetobacter baumannii [26]): inactive; Activity (Enterococcus faecium): inactive; Activity (Enterococcus faecalis): inactive; Activity (Staphylococcus aureus [27]): inactive; Activity (Staphylococcus aureus [28]): inactive; Activity (Bacillus subtilis): inactive
